From the supplement of paper PMC10307832

What was measured:
Test in all cases: relative viability (nuclei count vs DMSO), 5 days (fraction); higher = more cells survive
[1] = compound: O=c1[nH]cc(F)c(=O)[nH]1 [5-Fluorouracil] + CC(=O)c1c(C)c2cnc(Nc3ccc(N4CCNCC4)cn3)nc2n(C2CCCC2)c1=O [Palbociclib] (partner 0.5 µM)
In short: (§1)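 After 5 days of treatment, lung cancer cells in 1536-well plates were fixed and stained in a single step (final 0.05% Triton X-100, 1% formaldehyde, 1 ug/ml Hoechst) and their nuclei counted on 4× images. Treatment had been applied by pin tool the day after seeding as one drug alone or as a fixed anchor-drug dose with five library-drug doses (not always all listed) in √10 steps. Relative viability is the nuclei count of treated wells divided by that of vehicle wells, and values are medians of duplicate plates.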

[2] = compound: CN[C@@H]1C[C@H]2O[C@@](C)([C@@H]1OC)n1c3ccccc3c3c4c(c5c6ccccc6n2c5c31)C(=O)NC4 [Staurosporine] + Cc1cc(Nc2cc(N3CCN(C)CC3)nc(Sc3ccc(NC(=O)C4CC4)cc3)n2)n[nH]1 [Tozasertib] (partner 0.1 µM)
In short: as §1

[3] = compound: O=c1[nH]cc(F)c(=O)[nH]1 [5-Fluorouracil] + Nc1ncn([C@H]2C[C@H](O)[C@@H](CO)O2)c(=O)n1 [Decitabine] (partner 2 µM)
In short: as §1

[4] = compound: O=c1[nH]cc(F)c(=O)[nH]1 [5-Fluorouracil] + Cc1nc(NC(=O)N2CCC[C@H]2C(N)=O)sc1-c1ccnc(C(C)(C)C(F)(F)F)c1 [Alpelisib] (partner 2 µM)
In short: as §1

Cell Line | relative viability ([1]; first compound 0.02 µM) | relative viability ([1]; first compound 0.2 µM) | relative viability ([1]; first compound 0.6325 µM) | relative viability ([1]; first compound 2 µM) | relative viability ([2]; first compound 0.005 µM) | relative viability ([2]; first compound 0.01581 µM) | relative viability ([2]; first compound 0.05 µM) | relative viability ([2]; first compound 0.1581 µM) | relative viability ([2]; first compound 0.5 µM) | relative viability ([3]; first compound 0.02 µM) | relative viability ([3]; first compound 0.2 µM) | relative viability ([3]; first compound 0.6325 µM) | relative viability ([3]; first compound 2 µM) | relative viability ([4]; first compound 0.02 µM) | relative viability ([4]; first compound 0.2 µM) | relative viability ([4]; first compound 0.6325 µM) | relative viability ([4]; first compound 2 µM)
SW 900 | 0.481 | 0.473 | 0.497 | 0.416 | 0.541 | 0.239 | 0.246 | 0.206 | 0.162 | 0.415 | 0.362 | 0.407 | 0.431 | – | – | – | –
NCI-H1623 | – | – | – | – | 0.491 | 0.495 | 0.406 | 0.425 | 0.277 | – | – | – | – | – | – | – | –
NCI-H322M | – | – | – | – | 0.318 | 0.318 | 0.287 | 0.334 | 0.288 | 0.638 | 0.616 | 0.774 | 0.676 | 0.772 | 0.785 | 0.609 | 0.5
NCI-H2405 | 0.541 | 0.579 | 0.529 | 0.48 | 0.586 | 0.256 | 0.0844 | 0.0771 | 0.0789 | 0.734 | 0.741 | 0.738 | 0.661 | 0.793 | 0.705 | 0.737 | 0.609
HCC-44 | 0.971 | 0.929 | 0.823 | 0.619 | 0.426 | 0.136 | 0.168 | 0.135 | 0.112 | 1.07 | 0.96 | 0.94 | 0.77 | 0.824 | 0.722 | 0.4 | 0.267
HCC-78 | 0.467 | 0.529 | 0.496 | 0.451 | 0.545 | 0.287 | 0.424 | 0.429 | 0.258 | 0.711 | 0.726 | 0.427 | 0.327 | 0.242 | 0.281 | 0.235 | –
COR-L23 | 0.288 | 0.315 | 0.206 | 0.144 | 0.102 | 0.112 | 0.0926 | 0.0869 | 0.0647 | 0.452 | 0.449 | 0.412 | 0.254 | 0.862 | 0.661 | 0.491 | 0.209
NCI-H2009 | 0.196 | 0.229 | 0.169 | 0.213 | 0.295 | 0.312 | 0.176 | 0.19 | 0.0978 | 0.384 | 0.404 | 0.372 | 0.425 | 1.17 | 1.15 | 0.937 | 0.607
NCI-H3122 | 0.216 | 0.174 | 0.175 | 0.174 | 0.441 | – | 0.246 | 0.134 | 0.0837 | 0.432 | 0.447 | 0.304 | 0.214 | 0.796 | 0.653 | 0.371 | 0.246
